ChEMBL document CHEMBL1201862, “PubChem BioAssay data set” (2004)
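1) Cells in 96-well plates. 2) Compound, 48 h, 5 concentrations. 3) Linear interpolation between surrounding doses. 4) Unreached endpoint = highest concentration. The concentration for 50% growth inhibition is given as GI50.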 Active and inactive are the calls of the source. Cut-off read from the data, not from the text of the source: active = GI50 up to about 1.1 µM and inactive = higher.

Assays:
Test in all cases: NCI anticancer screen, dose series, 48 h
DMS-273 = test system: DMS-273
RXF 631 = test system: RXF 631
XF498 = test system: XF498
DLD-1 = test system: DLD-1
HOP-18 = test system: HOP-18
DMS-114 = test system: DMS-114
SNB-78 = test system: SNB-78
KM-20L2 = test system: KM-20L2
BT-549 = test system: BT-549

SMILES | GI50 (DMS-273) | GI50 (RXF 631) | GI50 (XF498) | GI50 (DLD-1) | GI50 (HOP-18) | GI50 (DMS-114) | GI50 (SNB-78) | GI50 (KM-20L2) | GI50 (BT-549)
O=C1COc2cc3c(cc2N1)SCCC(=O)N3 | > 100 µM (inactive) | > 100 µM (inactive) | > 100 µM (inactive) | > 100 µM (inactive) | > 100 µM (inactive) | > 100 µM (inactive) |  |  | 
CC(=O)OCC1(C)C(OC(C)=O)CCC2(C)C(CC(OC(C)=O)C3=CCOC3=O)C(O)(CO)CCC12 (configuration not stated) | > 100 µM (inactive) | > 100 µM (inactive) | > 100 µM (inactive) | > 100 µM (inactive) | > 100 µM (inactive) |  | > 100 µM (inactive) | > 100 µM (inactive) | 
C/C(=N\NC(=[Se])N(C)C)c1ccccn1 | 0.316 µM (active) | < 0.01 µM (active) | 0.198 µM (active) | < 0.01 µM (active) | 2.1 µM (inactive) | < 0.01 µM (active) | 2.97 µM (inactive) | < 0.01 µM (active) | 7.31 µM (inactive)
CC(=O)Oc1c(C)n(CCCl)ccc1=O | > 100 µM (inactive) | 59.4 µM (inactive) | > 100 µM (inactive) | > 100 µM (inactive) | > 100 µM (inactive) | > 100 µM (inactive) | > 100 µM (inactive) | 57.7 µM (inactive) | 
CC#C[C@@]1(O)CCCCC1O (some centres not stated) | > 100 µM (inactive) | > 100 µM (inactive) | > 100 µM (inactive) |  | > 100 µM (inactive) | > 100 µM (inactive) | > 100 µM (inactive) | > 100 µM (inactive) | 
